In experiment [1] the target is 26S proteasome non-ATPase regulatory subunit 14 (Homo sapiens, UniProt O00487). Briefly: inhibition of proteasome subunit RPN11 – biochemical, fluorescence polarization, uHTS hits, confirmation (AID 602368). The format is functional.
Another experiment has as its target T1, Aminopeptidase N (Plasmodium falciparum FcB1/Columbia, UniProt O96935).
T1 sequence (O96935 whole entry): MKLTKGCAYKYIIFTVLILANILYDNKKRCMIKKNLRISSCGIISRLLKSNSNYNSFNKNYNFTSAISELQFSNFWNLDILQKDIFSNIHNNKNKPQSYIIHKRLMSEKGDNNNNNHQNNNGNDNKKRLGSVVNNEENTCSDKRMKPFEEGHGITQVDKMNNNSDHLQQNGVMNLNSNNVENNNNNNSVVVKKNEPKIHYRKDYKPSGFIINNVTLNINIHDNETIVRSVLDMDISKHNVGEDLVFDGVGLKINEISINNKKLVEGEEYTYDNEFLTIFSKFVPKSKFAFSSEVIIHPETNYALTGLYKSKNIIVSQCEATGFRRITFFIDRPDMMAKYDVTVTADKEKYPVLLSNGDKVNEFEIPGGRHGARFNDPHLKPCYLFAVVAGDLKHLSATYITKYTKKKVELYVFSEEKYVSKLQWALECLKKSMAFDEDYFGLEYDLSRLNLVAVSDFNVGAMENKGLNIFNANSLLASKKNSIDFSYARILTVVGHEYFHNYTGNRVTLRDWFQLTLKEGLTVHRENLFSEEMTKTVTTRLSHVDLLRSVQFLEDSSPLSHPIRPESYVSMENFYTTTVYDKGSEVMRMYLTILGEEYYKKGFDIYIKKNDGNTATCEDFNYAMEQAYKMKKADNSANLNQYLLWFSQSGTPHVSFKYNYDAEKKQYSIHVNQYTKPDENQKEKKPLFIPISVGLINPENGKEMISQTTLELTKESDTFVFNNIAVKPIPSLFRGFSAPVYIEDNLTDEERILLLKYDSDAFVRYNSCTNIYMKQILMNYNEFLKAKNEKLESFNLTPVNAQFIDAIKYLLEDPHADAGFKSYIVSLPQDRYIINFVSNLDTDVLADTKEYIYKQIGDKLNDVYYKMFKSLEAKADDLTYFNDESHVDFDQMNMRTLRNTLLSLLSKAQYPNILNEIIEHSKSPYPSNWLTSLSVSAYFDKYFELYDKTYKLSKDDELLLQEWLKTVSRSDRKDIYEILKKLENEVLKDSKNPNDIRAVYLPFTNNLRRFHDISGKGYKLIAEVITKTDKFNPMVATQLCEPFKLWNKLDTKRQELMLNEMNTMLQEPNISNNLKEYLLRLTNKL
Briefly: malaria alanyl aminopeptidase activity blockers – biochemical, fluorogenic H-Leu-NHMec substrate, 1536-well (AID 1445). On the set-up: species or system Plasmodium falciparum 3D7, 3D7.

The target of another experiment is Prothrombin (Bos taurus, UniProt P00735). As to the kind of experiment: thrombin protease inhibitors – biochemical, fluorescence polarization, uHTS hits, dose response (AID 602369). It counts as functional.
Another experiment concerns the target Nonstructural protein 1 (Influenza A virus, UniProt Q194T2). The format is functional, Influenza A virus (A/California/07/2009(H1N1)).
For experiment [2], the target named is 72 kDa type IV collagenase (Homo sapiens, UniProt P08253). Briefly: Dose Response validation of uHTS RPN11 inhibitor hits using a MMP-2 Fluorescence assay. It counts as functional.
Chain of 72 kDa type IV collagenase (P08253 whole entry): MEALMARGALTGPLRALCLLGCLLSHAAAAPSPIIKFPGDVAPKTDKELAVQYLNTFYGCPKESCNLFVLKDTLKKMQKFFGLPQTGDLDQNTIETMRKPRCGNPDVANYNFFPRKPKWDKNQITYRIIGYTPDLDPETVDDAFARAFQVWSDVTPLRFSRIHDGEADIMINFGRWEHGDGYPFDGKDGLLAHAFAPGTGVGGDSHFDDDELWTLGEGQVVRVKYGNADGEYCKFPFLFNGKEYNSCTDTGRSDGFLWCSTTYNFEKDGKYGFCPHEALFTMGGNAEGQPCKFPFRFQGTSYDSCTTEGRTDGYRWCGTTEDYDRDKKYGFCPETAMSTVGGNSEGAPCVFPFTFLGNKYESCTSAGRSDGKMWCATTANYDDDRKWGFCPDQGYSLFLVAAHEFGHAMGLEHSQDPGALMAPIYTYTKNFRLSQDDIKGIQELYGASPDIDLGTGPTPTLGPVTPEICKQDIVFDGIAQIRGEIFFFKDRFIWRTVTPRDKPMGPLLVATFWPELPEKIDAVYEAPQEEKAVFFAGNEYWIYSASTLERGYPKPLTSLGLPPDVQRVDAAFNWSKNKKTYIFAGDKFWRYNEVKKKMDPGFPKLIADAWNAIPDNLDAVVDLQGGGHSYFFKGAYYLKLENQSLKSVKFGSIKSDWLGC
Another experiment has as its system Vero. Briefly: host cell viability loss, Vero E6 – synthesized analogs, cytotoxicity control for West Nile virus antiviral project, SAR follow-up (AID 2244). It counts as functional. To be noted: Chlorocebus sabaeus.
Another experiment concerns the target T2, CAAX prenyl protease 2 (Homo sapiens, UniProt Q9Y256).
T2 sequence (Q9Y256 whole entry): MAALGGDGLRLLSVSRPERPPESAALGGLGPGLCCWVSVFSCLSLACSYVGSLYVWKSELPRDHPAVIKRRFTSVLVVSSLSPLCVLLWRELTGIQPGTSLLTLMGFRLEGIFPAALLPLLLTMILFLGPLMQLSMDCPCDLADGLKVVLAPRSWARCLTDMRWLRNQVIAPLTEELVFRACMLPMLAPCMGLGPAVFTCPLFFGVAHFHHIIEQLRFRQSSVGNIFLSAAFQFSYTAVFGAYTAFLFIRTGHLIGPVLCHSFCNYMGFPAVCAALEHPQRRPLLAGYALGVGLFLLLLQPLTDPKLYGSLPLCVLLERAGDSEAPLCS
As to the kind of experiment: inhibition of Ras-converting CAAX protease Rce1 – biochemical, yeast membranes, quenched-peptide fluorescence, cherry-pick, dose response (AID 588849).

The target of another experiment is Trypsin (Sus scrofa, UniProt P00761). Briefly: trypsin protease activity blockade – biochemical, quenched peptide fluorescence, cherry-pick, selectivity assay for Rce1 protease inhibitor project, dose response (AID 488789).
Chain of Trypsin (P00761 whole entry): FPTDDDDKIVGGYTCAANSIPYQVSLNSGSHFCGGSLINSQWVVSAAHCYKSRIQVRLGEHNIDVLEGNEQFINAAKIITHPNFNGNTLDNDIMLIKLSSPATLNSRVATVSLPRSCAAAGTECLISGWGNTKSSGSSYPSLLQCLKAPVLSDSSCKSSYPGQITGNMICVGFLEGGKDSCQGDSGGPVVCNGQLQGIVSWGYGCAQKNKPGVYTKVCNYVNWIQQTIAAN
Experiment [3] is described as follows: Luminescence Cell-Based Dose Retest to Confirm Inhibitors of Cancer Stem Cells. [Related pubchem assays (depositor defined):AID2717, AID2721]. The settings on record: Homo sapiens. It counts as functional.
For experiment [4], the target named is FAD-linked sulfhydryl oxidase ALR (Homo sapiens, UniProt P55789). As to the kind of experiment: ALR-catalysed DTT oxidation blockers – biochemical, H2O2 detection, luminescence, cherry-pick, dose response (AID 493248).
Chain of FAD-linked sulfhydryl oxidase ALR (P55789 whole entry): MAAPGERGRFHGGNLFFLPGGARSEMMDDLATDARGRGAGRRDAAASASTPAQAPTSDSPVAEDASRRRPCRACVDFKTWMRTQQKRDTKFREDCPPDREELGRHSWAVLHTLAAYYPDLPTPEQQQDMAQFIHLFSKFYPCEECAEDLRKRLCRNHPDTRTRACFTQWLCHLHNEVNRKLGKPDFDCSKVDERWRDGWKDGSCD
The subject of a further experiment is INS1. Briefly: INS-1E survival protection against cytokine death – cell-based, luminescence, retest, dose response (AID 449756).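 Further: cell death triggered by IL-1 beta plus TNF-alpha plus IFN-gamma mixture; protective hits raise ATP signal compared with cytokine alone wells.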 The format is functional. The settings on record: Rattus norvegicus.
The target of experiment [5] is T3, Short transient receptor potential channel 4 (Mus musculus, UniProt Q9QUQ5).
T3 sequence (Q9QUQ5 whole entry): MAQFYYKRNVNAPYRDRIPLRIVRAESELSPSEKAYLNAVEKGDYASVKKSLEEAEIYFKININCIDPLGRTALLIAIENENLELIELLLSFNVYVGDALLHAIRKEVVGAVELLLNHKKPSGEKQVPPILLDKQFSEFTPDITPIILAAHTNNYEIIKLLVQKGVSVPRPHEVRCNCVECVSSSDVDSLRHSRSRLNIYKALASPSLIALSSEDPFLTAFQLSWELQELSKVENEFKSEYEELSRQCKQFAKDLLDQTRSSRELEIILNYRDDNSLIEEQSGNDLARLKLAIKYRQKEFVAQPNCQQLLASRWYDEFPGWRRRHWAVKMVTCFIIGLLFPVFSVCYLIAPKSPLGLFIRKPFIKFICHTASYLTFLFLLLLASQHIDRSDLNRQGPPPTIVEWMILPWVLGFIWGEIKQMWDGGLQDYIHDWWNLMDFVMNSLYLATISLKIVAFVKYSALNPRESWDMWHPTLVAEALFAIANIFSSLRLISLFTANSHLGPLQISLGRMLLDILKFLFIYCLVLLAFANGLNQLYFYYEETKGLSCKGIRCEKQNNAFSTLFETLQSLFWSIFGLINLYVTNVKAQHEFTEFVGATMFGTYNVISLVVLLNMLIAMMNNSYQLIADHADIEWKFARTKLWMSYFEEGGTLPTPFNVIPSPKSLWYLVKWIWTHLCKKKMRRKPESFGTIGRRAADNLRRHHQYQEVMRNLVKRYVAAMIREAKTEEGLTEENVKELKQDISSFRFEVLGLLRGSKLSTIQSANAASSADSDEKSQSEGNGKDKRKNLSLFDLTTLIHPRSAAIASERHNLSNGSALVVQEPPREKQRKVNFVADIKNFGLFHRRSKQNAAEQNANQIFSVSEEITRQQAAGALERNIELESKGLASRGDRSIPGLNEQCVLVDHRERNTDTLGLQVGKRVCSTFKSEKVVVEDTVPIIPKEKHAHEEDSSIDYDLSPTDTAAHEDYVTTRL
Briefly: block of DAMGO-driven TRPC4 calcium entry – cell-based, HEK293 TRPC4/mu-opioid, Fluo-4 calcium, dose response (AID 434942).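 Further: potency of inhibitors blocking the TRPC4 calcium response.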 It counts as functional.

Another experiment has as its system HeLa. Briefly: viability loss in HeLa cells – cell-based, 24 h, cherry-picked samples, cytotoxicity control, dose response (AID 504726).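 Further: potency for cytotoxicity as loss of luminescence signal.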 It counts as functional. To be noted: Homo sapiens.
In the next experiment the target is T4, Hexokinase HKDC1 (Homo sapiens, UniProt Q2TB90).
T4 sequence (Q2TB90 whole entry): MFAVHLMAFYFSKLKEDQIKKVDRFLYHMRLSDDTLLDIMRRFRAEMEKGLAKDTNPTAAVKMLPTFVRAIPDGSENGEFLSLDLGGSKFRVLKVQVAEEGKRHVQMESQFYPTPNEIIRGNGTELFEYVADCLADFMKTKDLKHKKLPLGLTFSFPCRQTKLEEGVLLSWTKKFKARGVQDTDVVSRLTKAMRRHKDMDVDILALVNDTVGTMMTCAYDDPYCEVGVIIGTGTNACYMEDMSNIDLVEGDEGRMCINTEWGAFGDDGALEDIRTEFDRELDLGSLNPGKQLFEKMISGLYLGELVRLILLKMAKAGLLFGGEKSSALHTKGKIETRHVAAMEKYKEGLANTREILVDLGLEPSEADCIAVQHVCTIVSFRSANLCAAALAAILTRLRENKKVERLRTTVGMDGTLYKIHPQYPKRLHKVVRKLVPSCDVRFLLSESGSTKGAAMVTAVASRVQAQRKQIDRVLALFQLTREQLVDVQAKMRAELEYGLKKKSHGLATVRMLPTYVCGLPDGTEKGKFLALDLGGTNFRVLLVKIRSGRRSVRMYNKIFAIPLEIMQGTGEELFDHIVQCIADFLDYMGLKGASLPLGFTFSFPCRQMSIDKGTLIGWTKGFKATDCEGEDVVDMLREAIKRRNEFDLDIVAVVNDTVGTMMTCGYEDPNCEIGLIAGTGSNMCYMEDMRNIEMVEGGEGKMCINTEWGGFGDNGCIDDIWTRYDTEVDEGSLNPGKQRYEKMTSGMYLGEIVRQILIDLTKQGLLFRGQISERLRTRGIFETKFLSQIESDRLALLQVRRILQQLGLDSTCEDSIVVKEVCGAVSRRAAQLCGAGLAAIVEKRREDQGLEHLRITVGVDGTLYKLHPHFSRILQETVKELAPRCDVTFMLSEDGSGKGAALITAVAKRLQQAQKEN
Briefly: inhibition of HKDC1 glucose phosphorylation – biochemical, W721R variant, dose response (AID 504729). The format is functional.

Experiment [6] deals with Glucose-6-phosphate 1-dehydrogenase (Homo sapiens, UniProt P11413). Briefly: inhibition of Homo sapiens G6PD, dose series – biochemical, fluorescence, selectivity assay for P. falciparum G6PD inhibitor project, dose response (AID 504792). It counts as functional.
Chain of Glucose-6-phosphate 1-dehydrogenase (P11413 whole entry): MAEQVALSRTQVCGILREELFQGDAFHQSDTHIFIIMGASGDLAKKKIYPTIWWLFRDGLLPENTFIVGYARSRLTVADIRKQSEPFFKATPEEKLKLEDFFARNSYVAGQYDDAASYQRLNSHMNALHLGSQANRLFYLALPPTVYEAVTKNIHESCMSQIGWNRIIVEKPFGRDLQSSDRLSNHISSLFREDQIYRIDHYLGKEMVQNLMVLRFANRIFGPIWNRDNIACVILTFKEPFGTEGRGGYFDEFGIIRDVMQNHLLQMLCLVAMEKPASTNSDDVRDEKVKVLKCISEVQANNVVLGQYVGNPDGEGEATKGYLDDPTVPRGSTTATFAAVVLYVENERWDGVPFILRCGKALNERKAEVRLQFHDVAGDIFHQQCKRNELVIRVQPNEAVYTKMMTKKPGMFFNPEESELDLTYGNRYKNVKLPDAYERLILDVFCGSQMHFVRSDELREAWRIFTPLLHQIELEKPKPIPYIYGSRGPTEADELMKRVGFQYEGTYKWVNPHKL
Experiment [7] concerns the target T5, Rac GTPase-activating protein 1 (Homo sapiens, UniProt Q9H0H5).
T5 sequence (Q9H0H5 whole entry): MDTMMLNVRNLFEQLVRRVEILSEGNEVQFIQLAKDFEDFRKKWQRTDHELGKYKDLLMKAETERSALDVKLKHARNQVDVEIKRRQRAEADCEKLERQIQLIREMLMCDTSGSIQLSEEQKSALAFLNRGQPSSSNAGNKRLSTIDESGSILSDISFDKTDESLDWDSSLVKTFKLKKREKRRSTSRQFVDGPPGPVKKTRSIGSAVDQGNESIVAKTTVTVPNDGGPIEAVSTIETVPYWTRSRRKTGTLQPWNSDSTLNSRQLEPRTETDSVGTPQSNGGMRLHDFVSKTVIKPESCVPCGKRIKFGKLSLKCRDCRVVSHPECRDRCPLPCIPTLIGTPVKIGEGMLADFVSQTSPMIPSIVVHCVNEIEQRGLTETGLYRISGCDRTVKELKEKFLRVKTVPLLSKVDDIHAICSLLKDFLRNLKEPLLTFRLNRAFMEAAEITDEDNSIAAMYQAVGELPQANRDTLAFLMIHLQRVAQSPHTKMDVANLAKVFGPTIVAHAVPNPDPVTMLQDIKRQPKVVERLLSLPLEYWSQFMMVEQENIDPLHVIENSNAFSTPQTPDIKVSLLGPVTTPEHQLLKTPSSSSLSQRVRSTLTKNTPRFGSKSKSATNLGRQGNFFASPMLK
Briefly: blockers of MgcRacGAP-driven Rac1 GTP hydrolysis – biochemical, ADP Hunter fluorescence, primary and confirmatory, confirmation (AID 624330). It counts as functional.

Another experiment deals with Cytochrome P450 3A4 (Homo sapiens, UniProt P08684). The settings on record: Potency.
Chain of Cytochrome P450 3A4 (P08684 whole entry): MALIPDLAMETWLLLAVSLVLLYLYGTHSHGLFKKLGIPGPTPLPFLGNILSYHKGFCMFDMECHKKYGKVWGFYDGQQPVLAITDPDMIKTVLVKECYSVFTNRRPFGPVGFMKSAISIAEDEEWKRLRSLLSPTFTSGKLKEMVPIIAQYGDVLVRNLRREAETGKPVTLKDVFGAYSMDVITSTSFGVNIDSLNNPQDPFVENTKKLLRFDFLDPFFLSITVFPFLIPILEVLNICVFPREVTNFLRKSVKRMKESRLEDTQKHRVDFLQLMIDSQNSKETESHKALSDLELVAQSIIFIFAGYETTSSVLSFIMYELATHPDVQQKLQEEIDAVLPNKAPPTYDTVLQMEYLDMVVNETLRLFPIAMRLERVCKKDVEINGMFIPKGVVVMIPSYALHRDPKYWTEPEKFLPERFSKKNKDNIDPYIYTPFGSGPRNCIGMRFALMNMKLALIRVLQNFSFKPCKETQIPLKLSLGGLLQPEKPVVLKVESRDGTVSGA

Calls of active or inactive are those of the source. Bounds are passed on as bounds.

This note sets out measurements from ChEMBL document CHEMBL1201862, “PubChem BioAssay data set” (2004).

Chain of Nonstructural protein 1 (Q194T2 whole entry): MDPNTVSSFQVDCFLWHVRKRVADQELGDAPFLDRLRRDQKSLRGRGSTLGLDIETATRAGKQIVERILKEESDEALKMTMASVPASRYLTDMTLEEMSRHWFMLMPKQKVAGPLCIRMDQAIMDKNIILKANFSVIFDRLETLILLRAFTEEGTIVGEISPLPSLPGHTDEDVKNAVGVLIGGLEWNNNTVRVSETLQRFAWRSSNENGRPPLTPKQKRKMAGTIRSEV
Chain of 26S proteasome non-ATPase regulatory subunit 14 (O00487 whole entry): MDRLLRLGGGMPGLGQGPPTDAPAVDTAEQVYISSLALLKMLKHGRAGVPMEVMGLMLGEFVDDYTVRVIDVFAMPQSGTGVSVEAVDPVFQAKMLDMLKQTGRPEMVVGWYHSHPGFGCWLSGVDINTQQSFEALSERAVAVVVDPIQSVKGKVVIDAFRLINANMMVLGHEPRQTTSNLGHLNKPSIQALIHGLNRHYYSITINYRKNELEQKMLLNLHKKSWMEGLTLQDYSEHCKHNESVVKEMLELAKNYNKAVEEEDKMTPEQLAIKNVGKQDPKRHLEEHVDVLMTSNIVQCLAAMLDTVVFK

On to `Cc1cc(O)nc(NN/C=C2/C(=O)N(c3ccccc3)C(=O)c3ccccc32)n1`, for which the IC50 is 18.4 µM (active) in experiment [1]; 47 µM (active) on Aminopeptidase N; 37.2 µM (active) at Prothrombin; 12 µM (active) on Nonstructural protein 1; > 100 µM (inactive) in [2].
On to `COc1ccc(-c2csc(NC(=O)c3ccc(Cl)cc3)n2)cc1`, for which the CC50 in the experiment on Vero is > 40 µM (active).
`COc1cc(Cn2c(N)c(C(=O)NCc3ccco3)c3nc4ccccc4nc32)cc(OC)c1OC`: the AC50 at CAAX prenyl protease 2 is 3.86 µM (active); at Trypsin, 22.3 µM (active).
In the case of `O=C(Nc1nc(-c2ccc(Cl)cc2)cs1)c1cccc(Cl)c1`, the CC50 in the experiment with Vero is < 0.08 µM (active).
Turning to `Cc1ccc(NNC(=O)c2ccno2)cc1Cl`, the AC50 in [3] was 2.34 µM (active); in experiment [4], 223 nM (active); with INS1, 7.1 µM (active).
In the case of `COc1ccc(-c2csc(NC(=O)Cc3cccc4ccccc34)c2C(=O)O)cc1`, the IC50 at Aminopeptidase N was 42.3 µM (active). Further, the EC50 in [5] was 7.5 µM (active).
In the case of `COc1ccc(C2c3ccc(O)cc3Oc3ncn(CCCO)c(=N)c32)cc1OC` (stereo not drawn), in the experiment on HeLa, the AC50 is > 350 µM (inactive).
`COc1cc(/C=C2\SC(c3ccc(C)cc3)=NC2=O)ccc1O`: the IC50 on Hexokinase HKDC1 was 38.3 µM (inactive); in [6] it was > 80 µM (inactive).
For `CC(=O)Nc1cccc(NC(=O)C2CCCN2C(=O)Nc2cccc(F)c2)c1` (stereo not drawn), the IC50 at Aminopeptidase N is 68.9 µM (active).
In the case of `O=[N+]([O-])c1ccc(NN=Cc2ccc(O)cc2O)nc1`, at Hexokinase HKDC1, the IC50 was 6.23 µM (active).
For the molecule `COc1ccc(/C=N/Nc2ccccn2)cc1OC`, the AC50 in experiment [4] was 771 nM (active).
As for `Cc1ccc2nc(C)cc(N/N=C/c3cccc(O)c3)c2c1`, the AC50 in experiment [4] is 1020 nM (active).
In the case of `Cc1cc(-c2ccc(N)c(C)c2)ccc1N` [ORTHOTOLIDINE], in experiment [7], the IC50 is 12.2 µM (active). In addition, at Cytochrome P450 3A4, the AC50 was 20 µM (inconclusive).
